Results on one molecule are retold here after patent publication US8835377B2, “Oral delivery of peptide pharmaceutical compositions” (UGP Therapeutics, Inc., priority 2004, dated 2014).

The data set can be described thus: Pharmacokinetics after duodenal injection of unformulated or formulated Dmt-DALDA in anesthetized rats (plasma, HPLC-UV). Type of data set: in vivo. The note with it: rats, formulated solution containing citric acid and lauroyl carnitine. The protocol: In the experiments represented in the subject Figure, six anesthetized rats (which were color-coded as: red, white, blue, orange, green and yellow) were given 0.7 mL Dmt-DALDA (1.6 mg/mL) with a syringe through a 27 gauge needle into the duodenum. This injection procedure was followed due to the technical difficulty inherent in preparing capsules which can be swallowed by small animals the size of a rat. The intraduodanal injection, therefore, mimics the release of the components of an enteric-coated capsule formulation which would pass through the esophagus and stomach and release its contents in the duodenum. Three of the rats (red, white and blue) were given Unformulated Dmt-DALDA in which there were no additional components (i.e., other than the Dmt-DALDA), while the other three rats (orange, green and yellow) were given Formulated Dmt-DALDA which included, in addition to the Dmt-DALDA, 0.5M citric acid and lauroyl carnitine (10 mg/ml). Samples of blood were taken from the carotid artery through an indwelling catheter before and 5, 15, 30, 60 and 120 minutes after the administration of the respective formulations (i.e., Formulated and Unformulated). The blood samples were centrifuged and the resulting plasma supernatants were stored frozen at −20° C. […] Peptide was detected with an ultraviolet (UV) detector set at a wavelength of 210 nm. […] Table I, moreover, provides the standard deviations for the data obtained regarding each of the test rats, which standard deviations are also indicated in FIG. 1.
Table II (below) summarizes the pharmacokinetic parameters in rats of orally administered unformulated and formulated Dmt-DALDA as those terms are defined above. Cmax refers to the maximum concentration of peptide detected in the rat plasma. The area under the curve (AUC) is a measure of the extent of peptide absorption and is calculated by the trapezoidal rule from a plot of peptide concentration as a function of time. Tmax indicates when the maximum concentration of the Dmt-DALDA in the blood serum was obtained.

`Cc1cc(O)cc(C)c1C[C@H](N)C(=O)N[C@H](CCCNC(=N)N)C(=O)N[C@@H](Cc1ccccc1)C(=O)N[C@@H](CCCCN)C(N)=O` [Dmt-DALDA, H-2,6-dimethyltyrosine-D-Arginine-Phenylalanine-Lysine-NH2]: the “Cmax and AUC, formulated solution vs unformulated” value was “significantly enhanced”.
